Test results published in patent US12090225B2 (Avalyn Pharma Inc., priority 2018, dated 2024).

Legend:
[1] = Formulation screening: compatibility of nintedanib esylate with pirfenidone and osmolality adjusting agents (visual appearance); type: physicochemical
Experimental: Formulation screening of stand alone nintedanib esylate and in combination with pirfenidone were conducted. Commonly used ionic osmolality adjusting agents include sodium chloride, sodium citrate, magnesium chloride were evaluated as excipients. In addition, mannitol and propylene glycol, which are […] osmolality adjusting agents, were also tested.
The resulting solutions, if not immediately precipitated, were filled into clear Type I glass vials and sealed with a Teflon lined rubber stopper and aluminum crimp cap. The test solutions were stored at ambient room condition in the dark. Visual appearance was periodically assessed within 24 hours and periodically thereafter. Table 31 summarizes the initial formulation screening results.

[2] = Tier 1: nintedanib esylate-excipient compatibility study; type: physicochemical
Experimental: Test solution 101-01-16-00 was filtered through a 0.22 micron PVDF filter, all other formulations were not filtered. The test solutions were filled into 10 mL clear Type I glass vials and sealed with Teflon-lined rubber stopper and aluminum crimp cap.

[3] = Tier 3: compatibility in 30 mM NaCl with a second excipient; type: physicochemical
Experimental: Compatibility of nintedanib esylate and nintedanib esylate plus pirfenidone control with sodium chloride and a second excipient was assessed. […] The test solutions were filled into 10 mL clear Type I glass vials with Teflon lined rubber stopper and aluminum crimp caps and stored at ambient room condition away from light.

[4] = Compatibility of nintedanib esylate with container system and membrane filter (nylon filter, LDPE vials); type: physicochemical
Description: Compatibility of Nintedanib Esylate with Container System and Type of Membrane Filter: The objective of this study is to determine the suitability of low density polyethylene (LDPE) vials and nylon filters for use with nintedanib esylate standalone and nintedanib esylate plus pirfenidone combination formulations. The test samples were stored at ambient room condition and periodically check for precipitation or crystallization.

[5] = Plasma and lung pharmacokinetics of nintedanib esylate, oral vs intratracheal aerosol; type: in vivo, C57BL/6 mice; details: for adverse effect (dyspnea): mice; for Cmax / half-life / AUC(0-t): female, C57BL/6, mouse; for half-life: read-out: Elimination half-life (alpha-phase)
[6] = Inhaled pharmacokinetics of fixed combination nintedanib esylate and pirfenidone; type: in vivo, C57BL/6 mice; details: 10.0 mg/kg each IT; for half-life: read-out: Elimination half-life (alpha-phase)
Experimental: Plasma and lung tissue samples were taken 2, 5, 10, 20, 40 min and 1, 2, and 4 hours post dose. Nintedanib was extracted and quantitated as μg/mL plasma and μg/gram lung tissue.

[7] = Inhaled pharmacokinetics of nintedanib salt forms (intratracheal); type: in vivo, C57BL/6 mice; details: for half-life: C57BL/6, mouse, 1 mg/kg, read-out: Elimination half-life (alpha-phase); for Cmax: read-out: Cmax
[8] = Therapeutic bleomycin model: dose levels and lung pharmacokinetic comparison; type: in vivo, Sprague Dawley rats; details: Oral Gavage (PO) 60.0 mg/kg; rat
[9] = system: bleomycin pulmonary fibrosis; assay: Therapeutic bleomycin pulmonary fibrosis model: Ashcroft fibrosis score, hydroxyproline; type: in vivo, Sprague Dawley rats; details: Oral Gavage (PO) 60 mg/kg BID; bleomycin rats
Experimental: Briefly, acclimated Sprague Dawley male rats (c.a. 253 grams at first dosing) were administered bleomycin on days 1, 2, 3 and 6 by the oropharyngeal (OP) route. On the eighth day, treatment was initiated with either saline or nintedanib. […] Ten animals were enrolled into each dosing group. […] All animals were euthanized on day 28d. Body weights were collected throughout the study, with lung weights at termination (Table 55). Left lungs were extracted and measured for hydroxyproline content, while […] were subjected to histology for Ashcroft fibrosis score determination (Table 56).

[10] = Therapeutic bleomycin model: body weight gain, lung weight-to-body weight ratio, tolerability; details: Oral Gavage (PO), dose group printed 0 mg/kg, BID; bleomycin rats
[11] = 100.0 mg/kg PO, Lung (whole lung homogenate)
[12] = inhaled or intranasal, 2.5 mg/kg IT, Lung (whole lung homogenate)
[13] = inhaled or intranasal, 2.5 mg/kg IT, Plasma
[14] = inhaled or intranasal, 10.0 mg/kg IT, Lung (whole lung homogenate)
[15] = inhaled or intranasal, 10.0 mg/kg IT, Plasma
[16] = female, C57BL/6, mouse, inhaled or intranasal, Lung (whole lung homogenate)
[17] = female, C57BL/6, mouse, inhaled or intranasal, Plasma
[18] = 1 mg/kg (base equivalent) IT, mice

Compound: COC(=O)c1ccc2c(c1)NC(=O)/C2=C(\Nc1ccc(N(C)C(=O)CN2CCN(C)CC2)cc1)c1ccccc1 [Nintedanib esylate]
- compatibility with sodium citrate ([1]; aqueous solution): incompatible
- compatibility with sodium chloride ([1]; sodium chloride at 30 mM): may be compatible
- compatibility with sodium chloride ([1]; sodium chloride at 60 mM or higher): incompatible
- compatibility with clear borosilicate glass vial [2]: not compatible
- compatibility with PVDF membrane filter ([2]; 0.22 μm): not compatible
- stability by itself in 30 mM NaCl [3]: not stable
- compatibility with NaCl ([4]; NaCl at 30 mM, in absence of pirfenidone, irrespective of container type and filtration material): incompatible
- suitability of clear borosilicate glass vial ([4]; even at 0.5 mg/mL nintedanib esylate): not suitable
- suitability of LDPE vial ([4]; nintedanib esylate and nintedanib esylate in 1.5% propylene glycol solutions): suitable
- adverse effect (dyspnea) ([5]; 2.5 mg/kg IT): not observed
- AUC 0-last ([5]; 2.5 mg/kg IT, Lung (whole lung homogenate)): 67.8 mg·h/kg
- adverse effect (dyspnea) ([5]; 10 mg/kg IT): caused dyspnea
- AUC 0-last ([5]; 10.0 mg/kg IT, Lung (whole lung homogenate)): 167.8 mg·h/kg
- AUC 0-last [5, 11]: 24.1 mg·h/kg
- Cmax [5, 12]: 57500 ng/g
- half-life [5, 12]: 3.8 min
- AUC(0-t) [5, 13]: 200 ng·h/mL
- Cmax [5, 13]: 700 ng/mL
- half-life [5, 13]: 2.3 min
- Cmax [5, 14]: 250000 ng/g
- half-life [5, 14]: 5.6 min
- AUC(0-t) [5, 15]: 600 ng·h/mL
- Cmax [5, 15]: 2700 ng/mL
- half-life [5, 15]: 2.3 min
- Cmax [5, 11]: 12100 ng/g
- AUC(0-t) ([5]; 100.0 mg/kg PO, Plasma): 1800 ng·h/mL
- Cmax ([5]; 100.0 mg/kg PO, Plasma): 600 ng/mL
- half-life ([5]; 100.0 mg/kg PO, Plasma): 112 min
- AUC 0-last ([6]; Lung (whole lung homogenate)): 68.4 mg·h/kg
- Cmax [6, 16]: 171000 ng/g
- half-life [6, 16]: 1.8 min
- AUC(0-t) [6, 17]: 1000 ng·h/mL
- Cmax [6, 17]: 2800 ng/mL
- half-life [6, 17]: 7.7 min
- Lung AUC [7, 18]: about 20 mg·hr/kg
- lung half-life [7, 18]: about 3 minutes
- half-life ([7]; female, lung (whole lung homogenate), inhaled or intranasal, lung (whole lung homogenate), 1.0 mg/kg IT, C57BL/6 mice): 2.9 min
- half-life ([7]; female, plasma, inhaled or intranasal, plasma, 1.0 mg/kg IT, C57BL/6 mice): 2 min
- Cmax ([7]; female, mouse, inhaled or intranasal, lung (whole lung homogenate), 1.0 mg/kg IT, C57BL/6 mice): 34500 ng/g
- Cmax ([7]; female, mouse, inhaled or intranasal, plasma, 1.0 mg/kg IT (base equivalent), C57BL/6 mice): 400 ng/mL
- AUC(0-t) ([7]; female, mouse, inhaled or intranasal, plasma, 1.0 mg/kg IT, C57BL/6 mice): 200 ng·h/mL
- AUC 0-last ([7]; lung (whole lung homogenate), 1.0 mg/kg IT, C57BL/6 mice): 21.7 mg·h/kg
- Lung AUC [8]: 29.3 mg·h/kg
- Lung Cmax [8]: 4.4 µg/g
- Fibrosis Score (SD) (Ashcroft) [9]: 2.3 (0.45)
- Fibrosis Score, Delta to Vehicle (%) [9]: 11.5%
- Body Weight Gain, Delta to Sham (%) [10]: −46.9%
